Experimental data from ChEMBL document CHEMBL4024731, “Cytotoxic steroidal saponins from Trillium kamtschaticum” (Bioorg Med Chem Lett, 2017).
pIC50: −log10 of the molar value.

System: HCT-116
Test: Cytotoxicity against human HCT116 cells after 48 hrs by MTT assay
Assay type: functional, cell-based
Conditions: HCT-116, 48 h

SMILES	pIC50
CC(=O)OC[C@H]1[C@@H]2C3=C(C(=O)[C@@H]2O[C@@]12OC[C@H](C)[C@@H](O)[C@@H]2O)[C@@H]1CC=C2C[C@@H](O)C[C@@H](O[C@@H]4OC[C@H](O)[C@H](O)[C@H]4O[C@@H]4O[C@@H](C)[C@H](OC(C)=O)[C@@H](O[C@@H]5OC[C@](O)(CO)[C@H]5O)[C@H]4O)[C@]2(C)[C@H]1CC3	5.31
C/C(C(=O)CC[C@@H](C)CO[C@@H]1O[C@H](CO)[C@@H](O)[C@H](O)[C@H]1O)=C1/C(=O)C[C@H]2[C@@H]3CC=C4C[C@@H](O[C@@H]5O[C@H](CO)[C@@H](O[C@@H]6O[C@@H](C)[C@H](O)[C@@H](O)[C@H]6O)[C@H](O)[C@H]5O)CC[C@]4(C)[C@H]3CC[C@]12C	4.76
CC(=O)O[C@H]1[C@@H](C)CO[C@@]2(O[C@H]3C(=O)C4=C(CC[C@H]5[C@H]4CC=C4C[C@@H](O)C[C@@H](O[C@@H]6OC[C@H](O)[C@H](O[C@@H]7OC[C@@H](O)[C@H](O)[C@H]7O)[C@H]6O[C@@H]6O[C@@H](C)[C@H](O)[C@@H](O[C@@H]7OC[C@](O)(CO)[C@H]7O)[C@H]6O)[C@@]45C)[C@H]3[C@@H]2CO)[C@H]1O	5.23
CC1=C2[C@](O)(C[C@H]3[C@@H]4CC=C5C[C@@H](O[C@@H]6O[C@H](CO)[C@@H](O[C@@H]7O[C@@H](C)[C@H](O)[C@@H](O)[C@H]7O)[C@H](O)[C@H]6O[C@@H]6O[C@@H](C)[C@H](O)[C@@H](O)[C@H]6O)CC[C@]5(C)[C@H]4CC[C@]23C)[C@@H](C[C@@H](C)CO[C@@H]2O[C@H](CO)[C@@H](O)[C@H](O)[C@H]2O)C1=O	< 4.40
Cc1c(CCC(C)CO)ccc2c1[C@@]1(C)CC[C@H]3[C@@H](CC=C4C[C@@H](O[C@@H]5O[C@H](CO)[C@@H](O)[C@H](O)[C@H]5O[C@@H]5O[C@@H](C)[C@H](O)[C@@H](O)[C@H]5O)CC[C@@]43C)[C@@H]1C2 (stereo not given in full)	< 4.40
C[C@@H]1O[C@@H](O[C@H]2[C@H](O[C@H]3CC[C@@]4(C)C(=CC[C@@H]5[C@@H]4CC[C@]4(C)C(=O)OC[C@@H]54)C3)O[C@H](CO)[C@@H](O)[C@@H]2O)[C@H](O)[C@H](O)[C@H]1O	< 4.40
COC(=O)/C(C)=C1\C(=O)C[C@H]2[C@@H]3CC=C4C[C@@H](O[C@@H]5O[C@H](CO)[C@@H](O)[C@H](O)[C@H]5O[C@@H]5O[C@@H](C)[C@H](O)[C@@H](O)[C@H]5O)CC[C@]4(C)[C@H]3CC[C@]12C	< 4.40
CC(=O)OC[C@H]1[C@@H]2C3=C(C(=O)[C@@H]2O[C@@]12OC[C@H](C)[C@@H](O)[C@@H]2O)[C@@H]1CC=C2C[C@@H](O)C[C@@H](O[C@@H]4OC[C@H](O)[C@H](O[C@@H]5OC[C@@H](O)[C@H](O)[C@H]5O)[C@H]4O[C@@H]4O[C@@H](C)[C@H](O)[C@@H](O[C@@H]5OC[C@](O)(CO)[C@H]5O)[C@H]4O)[C@]2(C)[C@H]1CC3	4.65
C/C(C(=O)CC[C@@H](C)CO[C@@H]1O[C@H](CO)[C@@H](O)[C@H](O)[C@H]1O)=C1/C(=O)C[C@H]2C3CC=C4C[C@@H](O[C@@H]5O[C@H](CO)[C@@H](O)[C@H](O)[C@H]5O[C@@H]5O[C@@H](C)[C@H](O)[C@@H](O)[C@H]5O)CC[C@]4(C)[C@H]3CC[C@]12C (single isomer, unassigned)	4.90
CC[C@@]1(O)C(=O)OCc2c1cc1n(c2=O)Cc2cc3ccccc3nc2-1 [CAMPTOTHECIN]	7.94
